From article PMC8125568 (2021)
Each block holds one compound with its values, some of them ahead of it.

Tests used:
[1] = system: AU-RNA (poly A—poly U) (RNA, polymer) A/U; test: circular dichroism titration; details: Na+ (sodium cacodylate, I = 0.05 M); pH 7.0, room temperature; RNA 20 µM; CD spectrum somewhat changed
[2] = system: AU-RNA (poly A—poly U) (RNA, polymer) A/U; test: UV thermal denaturation, 260 nm; details: Na+ (sodium cacodylate, I = 0.05 M), error ± 0.5, per base
[3] = system: AU-RNA (poly A—poly U) (RNA, polymer) A/U; test: fluorimetric titration, Scatchard; details: Na+ (sodium cacodylate, I = 0.05 M); pH 7.0, 25 °C, 0.04% DMSO; n fixed 0.2; polynucleotide as phosphates; per base
[4] = system: AT-DNA (poly dAdT—poly dAdT) (DNA, polymer) AT; test: fluorimetric titration, Scatchard; details: Na+ (sodium cacodylate, I = 0.05 M); pH 7.0, 25 °C, 0.04% DMSO; n fixed 0.2; polynucleotide as phosphates; per base

binding [1]: weak
Compound: CC12SC(C(=O)NCCN)=CC1=C1CCCC1=C1C=C(C(=O)NCCN)SC12C (stereo not drawn)

∆Tm ([2]; pH 7.0, 4% DMSO, r = 0.3, no stabilisation): 0.3 °C
Compound: CC12SC(C(=O)NCCNC(=O)c3ccc4ccc5cccc6ccc3c4c56)=CC1=C1CCCC1=C1C=C(C(=O)NCCNC(=O)c3ccc4ccc5cccc6ccc3c4c56)SC12C (stereo not drawn)

∆Tm ([2]; pH 7.0, r = 0.3): −0.7 °C
Compound: Cc1sc(C(=O)NCCN)cc1C1=C(c2cc(C(=O)NCCN)sc2C)CCC1

logKs [3]: 6.1 log M^-1
logKs [4]: 6.3 log M^-1
∆Tm ([2]; pH 7.0, 0.5% DMSO, r = 0.3, RNA 20 µM, two transitions (first/second)): 0/23.4 °C
Compound: Cc1sc(C(=O)NCCNC(=O)c2ccc3ccc4cccc5ccc2c3c45)cc1C1=C(c2cc(C(=O)NCCNC(=O)c3ccc4ccc5cccc6ccc3c4c56)sc2C)CCC1
